Laboratory results taken from patent US20240101544A1, “INHIBITORS OF QPCTL AND QPCT” (priority 2022, published 2024).
pIC50: −log10 of the molar value.

Key:
QPCTL [1] = target: T1, QPCTL (Homo sapiens (Human), UniProt Q9NXS2); test: Inhibition of Cellular QPCTL Activity - FACS flow cytometry, CC2C6 anti-CD47 staining of Ramos cells; format: cell-based; conditions: Ramos human Burkitts Lymphoma cells, 72-96 hours, % CC2C6-positive cells
Method: Inhibition of Cellular QPCTL Activity—Fluorescence-Activated Cell Sorting (FACS) Flow Cytometry
The cells were incubated for 72-96 hours at 37° C. and 5% CO2. At the end of incubation period, cells were transferred to tubes and spun down at 1200 rpm for 5 minutes. […] After antibody staining, the cells were washed with FACS buffer then stained with SYTOX™ Blue dead cell stain at a dilution of 1:1000. Cells were analyzed on a BD FACS Melody and a positive staining gate on live cells was set using the 0.1% DMSO controls. […] Flow cytometry data were analyzed by FlowJo software and concentration-response-curves and IC50 values were generated using Collaborative Drug Discovery software.
Target sequence in this assay (Q9NXS2 whole entry): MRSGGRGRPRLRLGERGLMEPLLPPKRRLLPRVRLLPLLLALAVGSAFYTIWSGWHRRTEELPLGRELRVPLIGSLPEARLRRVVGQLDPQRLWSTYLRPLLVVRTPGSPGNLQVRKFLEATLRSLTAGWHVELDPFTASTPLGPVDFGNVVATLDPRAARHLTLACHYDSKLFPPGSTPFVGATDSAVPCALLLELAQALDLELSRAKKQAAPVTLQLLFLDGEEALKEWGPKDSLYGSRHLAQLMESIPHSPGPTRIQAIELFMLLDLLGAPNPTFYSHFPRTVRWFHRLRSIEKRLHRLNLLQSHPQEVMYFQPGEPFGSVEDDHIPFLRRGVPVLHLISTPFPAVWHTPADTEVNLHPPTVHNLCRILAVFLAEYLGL

QPCTL [2] = target: T1, QPCTL; test: QPCTL Enzymatic Activity Assay (coupled-enzyme fluorescent assay, H-Gln-AMC substrate); format: biochemical; conditions: recombinant truncated human QPCTL 10-12 nM, 10 μM H-Gln-AMC; read-out: QPCTL Inhibition IC50
Target sequence in this assay (Q9NXS2 53-382): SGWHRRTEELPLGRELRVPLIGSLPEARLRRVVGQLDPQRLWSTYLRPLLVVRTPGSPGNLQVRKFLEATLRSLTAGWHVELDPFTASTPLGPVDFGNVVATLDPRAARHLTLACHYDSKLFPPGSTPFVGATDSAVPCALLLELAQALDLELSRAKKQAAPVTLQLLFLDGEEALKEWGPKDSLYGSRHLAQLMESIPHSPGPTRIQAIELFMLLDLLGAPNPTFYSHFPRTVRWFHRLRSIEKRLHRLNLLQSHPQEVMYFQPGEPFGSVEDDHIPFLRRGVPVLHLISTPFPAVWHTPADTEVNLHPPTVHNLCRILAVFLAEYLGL

QPCT (rhQPCT) = QPCT (rhQPCT) (Homo sapiens (Human), UniProt Q16769); test: QPCT Enzymatic Activity Assay (coupled-enzyme fluorescent assay, H-Gln-AMC substrate); format: biochemical; conditions: rhQPCT 10-12 nM, 10 μM H-Gln-AMC; read-out: QPCT Inhibition IC50
Chain of QPCT (rhQPCT) (Q16769 29-361): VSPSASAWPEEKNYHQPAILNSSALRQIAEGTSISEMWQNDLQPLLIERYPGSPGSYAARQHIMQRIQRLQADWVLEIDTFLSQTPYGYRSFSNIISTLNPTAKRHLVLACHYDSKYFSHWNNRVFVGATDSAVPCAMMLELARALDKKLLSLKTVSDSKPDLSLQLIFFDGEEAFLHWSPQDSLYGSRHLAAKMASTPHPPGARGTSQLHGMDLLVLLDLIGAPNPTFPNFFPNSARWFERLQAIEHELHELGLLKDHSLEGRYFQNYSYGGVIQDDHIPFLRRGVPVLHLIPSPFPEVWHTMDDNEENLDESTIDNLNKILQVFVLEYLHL
Summary of the method: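 Coupled assay: recombinant human QPCT converts H-Gln-AMC (10 μM final) to pyroglutamyl-AMC, 60 min at 37 °C, stopped by boiling; PGPEP-1 then releases AMC.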

QPCTL [3] = target: T1, QPCTL; test: Inhibition of Cellular QPCTL Activity - Imaging Assay, CC2C6 anti-CD47 staining of DLD-1 cells; format: cell-based; conditions: 72 hours, CC2C6 anti-CD47 high-content imaging
Method: Inhibition of Cellular QPCTL Activity—Imaging Assay
The cells were incubated for 72 hours at 37° C. and 5% CO2. […] After primary antibody staining, the cells were fixed with 4% paraformaldehyde in the incubation buffer for 15 minutes at room temperature. […] Cells were analyzed on a ImageXpress Pico Automated Cell Imaging System (Molecular Devices) using 10× objective (3×3 fields).
Target sequence in this assay (Q9NXS2 whole entry): as the sequence (Q9NXS2 whole entry) above

Row | Compound | pIC50 (QPCTL [1]) | pIC50 (QPCTL [2]) | pIC50 (QPCT (rhQPCT)) | pIC50 (QPCTL [3])
1 | Cn1cnnc1C1CCN(c2c(C#N)cccc2-c2cccnc2)CC1 [Example 2, 2-[4-(4-methyl-4H-1,2,4-triazol-3-yl)piperidin-1-yl]-3-(pyridin-3-yl)benzonitrile] | 6.00 to 7.00 | > 7.00 | > 7.00 | –
2 | COc1ccncc1-c1cccc(C#N)c1N1CCC(c2nncn2C)CC1 [Example 3, 3-(4-methoxypyridin-3-yl)-2-[4-(4-methyl-4H-1,2,4-triazol-3-yl)piperidin-1-yl]benzonitrile] | 6.00 to 7.00 | > 7.00 | > 7.00 | –
3 | Cn1cnnc1C1CCN(c2c(C#N)cccc2-c2cncc3c2cnn3C)CC1 [Example 4, 3-{1-methyl-1H-pyrazolo[3,4-c]pyridin-4-yl}-2-[4-(4-methyl-4H-1,2,4-triazol-3-yl)piperidin-1-yl]benzonitrile] | 5.00 to 6.00 | 6.00 to 7.00 | 6.00 to 7.00 | –
4 | Cn1cnnc1C1CCN(c2c(C#N)cccc2-c2ccc(OCCO)nc2)CC1 [Example 6, 3-[6-(2-hydroxyethoxy)pyridin-3-yl]-2-[4-(4-methyl-4H-1,2,4-triazol-3-yl)piperidin-1-yl]benzonitrile] | 5.00 to 6.00 | > 7.00 | > 7.00 | –
5 | CN(C)CCOc1ccncc1-c1cccc(C#N)c1N1CCC(c2nncn2C)CC1 [Example 8, 3-{4-[2-(dimethylamino)ethoxy]pyridin-3-yl}-2-[4-(4-methyl-4H-1,2,4-triazol-3-yl)piperidin-1-yl]benzonitrile] | 5.00 to 6.00 | > 7.00 | > 7.00 | –
6 | Cn1cnnc1C1CCN(c2c(C#N)cccc2-c2cnccc2OCCO)CC1 [Example 9, 3-[4-(2-hydroxyethoxy)pyridin-3-yl]-2-[4-(4-methyl-4H-1,2,4-triazol-3-yl)piperidin-1-yl]benzonitrile] | 5.00 to 6.00 | > 7.00 | > 7.00 | –
7 | Cn1cnnc1C1CCN(c2c(C#N)cccc2-c2cnccc2Cl)CC1 [Example 10, 3-(4-chloropyridin-3-yl)-2-[4-(4-methyl-4H-1,2,4-triazol-3-yl)piperidin-1-yl]benzonitrile] | 6.00 to 7.00 | > 7.00 | > 7.00 | –
8 | Cn1cnnc1C1CCN(c2c(C#N)cccc2-c2ccnnc2)CC1 [Example 11, 2-[4-(4-methyl-4H-1,2,4-triazol-3-yl)piperidin-1-yl]-3-(pyridazin-4-yl)benzonitrile] | > 7.00 | > 7.00 | > 7.00 | –
9 | Cn1cnnc1C1CCN(c2c(C#N)cccc2-c2cncc3c2ccn3C)CC1 [Example 12, 3-{1-methyl-1H-pyrrolo[2,3-c]pyridin-4-yl}-2-[4-(4-methyl-4H-1,2,4-triazol-3-yl)piperidin-1-yl]benzonitrile] | 5.00 to 6.00 | > 7.00 | > 7.00 | –
10 | Cn1cnnc1C1CCN(c2c(C#N)cccc2-c2ccc3ocnc3c2)CC1 [Example 15, 3-(1,3-benzoxazol-5-yl)-2-[4-(4-methyl-4H-1,2,4-triazol-3-yl)piperidin-1-yl]benzonitrile] | 5.00 to 6.00 | 6.00 to 7.00 | > 7.00 | –
11 | Cn1cc2c(-c3cccc(C#N)c3N3CCC(c4nncn4C)CC3)cncc2n1 [Example 16, 3-{2-methyl-2H-pyrazolo[3,4-c]pyridin-4-yl}-2-[4-(4-methyl-4H-1,2,4-triazol-3-yl)piperidin-1-yl]benzonitrile] | 6.00 to 7.00 | > 7.00 | > 7.00 | –
12 | Cn1cnnc1C1CCN(c2c(C#N)cccc2-c2ccc3nonc3c2)CC1 [Example 19, 3-(2,1,3-benzoxadiazol-5-yl)-2-[4-(4-methyl-4H-1,2,4-triazol-3-yl)piperidin-1-yl]benzonitrile] | 5.00 to 6.00 | 6.00 to 7.00 | > 7.00 | –
13 | COc1ccc(-c2ccnnc2)c(N2CCC(c3nncn3C)CC2)c1C#N [Example 26, 6-methoxy-2-[4-(4-methyl-4H-1,2,4-triazol-3-yl)piperidin-1-yl]-3-(pyridazin-4-yl)benzonitrile] | > 7.00 | > 7.00 | > 7.00 | –
14 | COc1ccncc1-c1ccc(Cl)c(C#N)c1N1CCC(c2nncn2C)CC1 [Example 27, 6-chloro-3-(4-methoxypyridin-3-yl)-2-[4-(4-methyl-4H-1,2,4-triazol-3-yl)piperidin-1-yl]benzonitrile] | 6.00 to 7.00 | > 7.00 | > 7.00 | –
15 | Cn1cnnc1C1CCN(c2c(-c3ccc(F)nc3)ccc(-c3ccccc3)c2C#N)CC1 [Example 28, 4-(6-fluoropyridin-3-yl)-3-[4-(4-methyl-4H-1,2,4-triazol-3-yl)piperidin-1-yl]-[1,1′-biphenyl]-2-carbonitrile] | > 7.00 | > 7.00 | > 7.00 | –
16 | Cn1cnnc1C1CCN(c2c(-c3ccc(F)nc3)ccc(Cl)c2C#N)CC1 [Example 30, 6-chloro-3-(6-fluoropyridin-3-yl)-2-[4-(4-methyl-4H-1,2,4-triazol-3-yl)piperidin-1-yl]benzonitrile] | > 7.00 | > 7.00 | > 7.00 | –
17 | Cn1cnnc1N1CCN(c2c(C#N)cccc2-c2ccc(F)nc2)CC1 [Example 106, 3-(6-fluoropyridin-3-yl)-2-(4-(4-methyl-4H-1,2,4-triazol-3-yl)piperazin-1-yl)benzonitrile] | – | > 7.00 | > 7.00 | > 7.00
18 | COc1cc(F)c(-c2ccc(F)nc2)c(N2CCC(c3nncn3C)CC2)c1C#N [Example 107, 4-fluoro-3-(6-fluoropyridin-3-yl)-6-methoxy-2-(4-(4-methyl-4H-1,2,4-triazol-3-yl)piperidin-1-yl)benzonitrile] | – | > 7.00 | > 7.00 | > 7.00
19 | Cn1cnnc1C1CCN(c2c(-c3ccc(F)nc3)ccc(C3COC3)c2C#N)CC1 [Example 108, 3-(6-fluoropyridin-3-yl)-2-(4-(4-methyl-4H-1,2,4-triazol-3-yl)piperidin-1-yl)-6-(oxetan-3-yl)benzonitrile] | – | > 7.00 | > 7.00 | > 7.00
20 | Cn1cnnc1C1CCN(c2c(C#N)cccc2-c2ccc(O)c(C=O)c2)CC1 [Example 109, 3′-formyl-4′-hydroxy-2-(4-(4-methyl-4H-1,2,4-triazol-3-yl)piperidin-1-yl)-[1,1′-biphenyl]-3-carbonitrile] | – | > 7.00 | > 7.00 | > 7.00
21 | Cn1cnnc1C1CCN(c2c(C#N)cccc2-c2cncc(Cl)c2)CC1 [Example 115, 3-(5-chloropyridin-3-yl)-2-(4-(4-methyl-4H-1,2,4-triazol-3-yl)piperidin-1-yl)benzonitrile] | – | > 7.00 | > 7.00 | 6.00 to 7.00
22 | Cn1cnnc1C1CCN(c2c(C#N)cccc2-c2cncc(B(O)O)c2)CC1 [Example 117, (5-(3-cyano-2-(4-(4-methyl-4H-1,2,4-triazol-3-yl)piperidin-1-yl)phenyl)pyridin-3-yl)boronic acid] | – | > 7.00 | > 7.00 | > 7.00
23 | Cn1cnnc1C1CCN(c2c(C#N)cccc2-c2cncc(O)c2)CC1 [Example 120, 3-(5-hydroxypyridin-3-yl)-2-(4-(4-methyl-4H-1,2,4-triazol-3-yl)piperidin-1-yl)benzonitrile] | – | > 7.00 | > 7.00 | > 7.00
24 | Cn1ccc(-c2ccc(-c3ccc(F)nc3)c(N3CCN(c4nncn4C)CC3)c2C#N)n1 [Example 122, 3-(6-fluoropyridin-3-yl)-6-(1-methyl-1H-pyrazol-3-yl)-2-(4-(4-methyl-4H-1,2,4-triazol-3-yl)piperazin-1-yl)benzonitrile] | – | > 7.00 | > 7.00 | > 7.00
25 | Cn1cnnc1C1CCN(c2c(C#N)cccc2-c2ccc3c(c2)COB3O)CC1 [Example 123, 3-(1-hydroxy-1,3-dihydrobenzo[c][1,2]oxaborol-5-yl)-2-(4-(4-methyl-4H-1,2,4-triazol-3-yl)piperidin-1-yl)benzonitrile] | – | > 7.00 | > 7.00 | 5.00 to 6.00
26 | Cn1ccc(-c2ccc(-c3ccc(O)c(C=O)c3)c(N3CCC(c4nncn4C)CC3)c2C#N)n1 [Example 124, 3′-formyl-4′-hydroxy-4-(1-methyl-1H-pyrazol-3-yl)-2-(4-(4-methyl-4H-1,2,4-triazol-3-yl)piperidin-1-yl)-[1,1′-biphenyl]-3-carbonitrile] | – | > 7.00 | > 7.00 | 6.00 to 7.00
27 | Cn1cnnc1C1CCN(c2c(-c3ccc(F)nc3)ccnc2C#N)CC1 [Example 132, 6-fluoro-3′-(4-(4-methyl-4H-1,2,4-triazol-3-yl)piperidin-1-yl)-[3,4′-bipyridine]-2′-carbonitrile] | – | > 7.00 | > 7.00 | > 7.00
28 | Cn1cnnc1C1CCN(c2c(C#N)ccnc2-c2ccc(F)nc2)CC1 [Example 133, 6′-fluoro-3-(4-(4-methyl-4H-1,2,4-triazol-3-yl)piperidin-1-yl)-[2,3′-bipyridine]-4-carbonitrile] | – | > 7.00 | > 7.00 | > 7.00
